What was measured:
[1] = tested on: inflammation-associated end points (ICAM-1, Ox-LDL, Lp-PLA2, IL-6, hsCRP); experiment: MARINE study, inflammation-associated end points (ITT); type: in vivo, human; settings: AMR101 4 g/day, median
Description: A summary of baseline values, end-of-treatment values, and median placebo-adjusted percent change from baseline to study end of inflammation-associated end points in each of the three ITT sub-populations is shown in Table 5. […]

[2] = tested on: inflammation-associated end points (ICAM-1, Ox-LDL, Lp-PLA2, IL-6, hsCRP); experiment: ANCHOR study, inflammation-associated end points (ITT); type: in vivo, human; settings: for ICAM-1 median placebo-adjusted % change from baseline / IL-6 median placebo-adjusted % change from baseline / Lp-PLA2 median placebo-adjusted % change from baseline / Ox-LDL median placebo-adjusted % change from baseline / hsCRP median placebo-adjusted % change from baseline: week 12; for ICAM-1 change from baseline / ICAM-1 end-of-treatment value / IL-6 change from baseline / IL-6 end-of-treatment value / Lp-PLA2 change from baseline / Lp-PLA2 end-of-treatment value / Ox-LDL change from baseline / Ox-LDL end-of-treatment value / hsCRP change from baseline / hsCRP end-of-treatment value: week 12, on statin, median
Description: A multi-center, placebo-controlled, randomized, double-blind, 12-week study was performed to evaluate the efficacy and safety of >96% E-EPA in patients with fasting triglyceride levels ≧200 mg/dl and <500 mg/dl despite statin therapy (the mean of two qualifying entry values needed to be ≧185 mg/dl and at least one of the values needs to be ≧200 mg/dl). The primary objective of the study was to determine the efficacy of >96% E-EPA 2 g daily and 4 g daily, compared to placebo, in lowering fasting TG levels in patients with high risk for cardiovascular disease and with fasting TG levels ≧200 mg/dL and <500 mg/dL, despite treatment to LDL-C goal on statin therapy.
The population for this study was men and women >18 years of age with a body mass index ≦45 kg/m^2 with fasting TG levels greater than or equal to 200 mg/dl and less than 500 mg/dl and on a stable does of statin therapy (with or without ezetimibe). The statin must have been atorvostatin, rosuvastatin or simvastatin. The dose of statin must have been stable for ≧4 weeks prior to the LDL-C/TG baseline qualifying measurement for randomization. The statin dose was optimal such that the patients are at their LDL-C goal at the LDL-C/TG baseline qualifying measurements. The same statin at the same dose was continued until the study ended.
Approximately 648 patients were randomized at approximately 80 centers in the U.S. The study was a 18- to 20-week, Phase 3, multi-center study consisting of 2 study periods: (1) A 6- to 8-week screening period that included a diet and lifestyle stabilization, a non-statin lipid-altering treatment washout, and an LDL-C and TG qualifying period and (2) A 12-week, double-blind, randomized, placebo-controlled treatment period.
After confirmation of qualifying fasting LDL-C and TG values, eligible patients entered a 12-week, randomized, double-blind treatment period. At Visit 4 (Week 0), patients were randomly assigned to 1 of the following treatment groups: • >96% E-EPA 2 g daily, • >96% E-EPA 4 g daily, or • Placebo.
>96% E-EPA was provided in 1 g liquid-filled, oblong, gelatin capsules. The matching placebo capsule was filled with light liquid paraffin and contains 0 g of >96% E-EPA. >96% E-EPA capsules were to be taken with food (i.e. with or at the end of a meal).
The primary efficacy variable for the double-blind treatment period was percent change in TG from baseline to Week 12 endpoint. The secondary efficacy variables for the double-blind treatment period included the following: • Percent changes in total cholesterol (TC), high-density lipoprotein cholesterol (HDL-C), LDL-C, calculated non-HDL-C, and very low-density lipoprotein cholesterol (VLDL-C) from baseline to Week 12 endpoint; • Percent change in very low-density lipoprotein TG from baseline to Week 12; • Percent changes in apolipoprotein A-I (apo A-I), apolipoprotein B (apo B), and apo A-I/apo B ratio from baseline to Week 12; • Percent changes in lipoprotein(a) from baseline to Week 12; • Percent changes in LDL particle number and size, measured by nuclear magnetic resonance, from baseline to Week 12; • Percent change in remnant-like particle cholesterol from baseline to Week 12; • Percent change in oxidized LDL from baseline to Week 12; • Changes in FPG and HbA1c from baseline to Week 12; • Change in insulin resistance, as assessed by the homeostasis model index insulin resistance, from baseline to Week 12; • Percent change in lipoprotein associated phospholipase A2 (Lp-PLA2) from baseline to Week 12; • Change in intracellular adhesion molecule-1 from baseline to Week 12; • Change in interleukin-2 from baseline to Week 12; • Change in plasminogen activator inhibitor-1 from baseline to Week 12. […]

SMILES: CC/C=C\C/C=C\C/C=C\C/C=C\C/C=C\CCCC(=O)OCC [IPE, ethyl eicosapentaenoate]
- Lp-PLA2 change from baseline [1]: −17.1%
- Lp-PLA2 end-of-treatment value [1]: 201.0 ng/mL
- Ox-LDL change from baseline [1]: −3.0%
- Ox-LDL end-of-treatment value [1]: 74.8 U/L
- hsCRP change from baseline [1]: −2.5%
- hsCRP end-of-treatment value [1]: 2.2 mg/L
- ICAM-1 median placebo-adjusted % change from baseline ([2]; AMR101 2 g/day vs placebo): −2.2%
- IL-6 median placebo-adjusted % change from baseline ([2]; AMR101 2 g/day vs placebo): 7.0%
- Lp-PLA2 median placebo-adjusted % change from baseline ([2]; AMR101 2 g/day vs placebo): −8.0%
- Ox-LDL median placebo-adjusted % change from baseline ([2]; AMR101 2 g/day vs placebo): −5.8%
- hsCRP median placebo-adjusted % change from baseline ([2]; AMR101 2 g/day vs placebo): −6.8%
- ICAM-1 change from baseline ([2]; AMR101 2 g/day): 0.5%
- ICAM-1 end-of-treatment value ([2]; AMR101 2 g/day): 268.5 ng/mL
- IL-6 change from baseline ([2]; AMR101 2 g/day): 6.9%
- IL-6 end-of-treatment value ([2]; AMR101 2 g/day): 2.7 pg/mL
- Lp-PLA2 change from baseline ([2]; AMR101 2 g/day): −1.8%
- Lp-PLA2 end-of-treatment value ([2]; AMR101 2 g/day): 183.5 ng/mL
- Ox-LDL change from baseline ([2]; AMR101 2 g/day): 2.6%
- Ox-LDL end-of-treatment value ([2]; AMR101 2 g/day): 55.8 U/L
- hsCRP change from baseline ([2]; AMR101 2 g/day): 10.3%
- hsCRP end-of-treatment value ([2]; AMR101 2 g/day): 2.5 mg/L
- ICAM-1 median placebo-adjusted % change from baseline ([2]; AMR101 4 g/day vs placebo): −2.4%
- IL-6 median placebo-adjusted % change from baseline ([2]; AMR101 4 g/day vs placebo): −1.0%
- Lp-PLA2 median placebo-adjusted % change from baseline ([2]; AMR101 4 g/day vs placebo): −19.0%
- Ox-LDL median placebo-adjusted % change from baseline ([2]; AMR101 4 g/day vs placebo): −13.3%
- hsCRP median placebo-adjusted % change from baseline ([2]; AMR101 4 g/day vs placebo): −22.0%
- ICAM-1 change from baseline ([2]; AMR101 4 g/day): 0.8%
- ICAM-1 end-of-treatment value ([2]; AMR101 4 g/day): 270.0 ng/mL
- IL-6 change from baseline ([2]; AMR101 4 g/day): 3.1%
- IL-6 end-of-treatment value ([2]; AMR101 4 g/day): 2.6 pg/mL
- Lp-PLA2 change from baseline ([2]; AMR101 4 g/day): −12.8%
- Lp-PLA2 end-of-treatment value ([2]; AMR101 4 g/day): 160.0 ng/mL
- Ox-LDL change from baseline ([2]; AMR101 4 g/day): −4.8%
- Ox-LDL end-of-treatment value ([2]; AMR101 4 g/day): 51.4 U/L
- hsCRP change from baseline ([2]; AMR101 4 g/day): −2.4%
- hsCRP end-of-treatment value ([2]; AMR101 4 g/day): 2.0 mg/L

Source: patent publication US20140221676A1, “COMPOSITIONS AND METHODS FOR TREATING AND/OR PREVENTING CARDIOVASCULAR DISEASE” (Amarin Pharmaceuticals Ireland Limited, priority 2013, published 2014)
